From ChEMBL document CHEMBL2157957, “Strategies to mitigate the bioactivation of 2-anilino-7-aryl-pyrrolo[2,1-f][1,2,4]triazines: identification of orally bioavailable, efficacious ALK inhibitors” (J Med Chem, 2012)
pIC50: −log10 of the molar value. Blank lines part the entries; values can stand above or below the compound they belong to.

Experiments:
[1] = Volume of distribution in Sprague-Dawley rat at 1 mg/kg, iv; assay type: ADME, organism-based; parameters: dose 1 mg/kg, route intravenous; conditions: in vivo
Mus musculus [2] = experiment: Toxicity in human SUP-M2 cells xenografted SCID mouse assessed as incidence of overt toxicity at 30 mg/kg, po BID measured 12 days post dose; assay type: organism-based; parameters: dose 30 mg/kg, route oral; conditions: in vivo, 288 h
Mus musculus [3] = experiment: Toxicity in human SUP-M2 cells xenografted SCID mouse assessed as incidence of overt toxicity at 55 mg/kg, po BID measured 12 days post dose; assay type: organism-based; parameters: dose 55 mg/kg, route oral; conditions: in vivo, 288 h
[4] = Tmax in SCID mouse at 10 mg/kg, po; assay type: ADME, organism-based; parameters: dose 10 mg/kg, route oral; conditions: in vivo
[5] = Volume of distribution in SCID mouse at 1 mg/kg, iv; assay type: ADME, organism-based; parameters: dose 1 mg/kg, route intravenous; conditions: in vivo
Insulin receptor = Insulin receptor (Homo sapiens, UniProt P06213); experiment: Inhibition of IR
Chain of Insulin receptor (P06213 28-758 limits assumed): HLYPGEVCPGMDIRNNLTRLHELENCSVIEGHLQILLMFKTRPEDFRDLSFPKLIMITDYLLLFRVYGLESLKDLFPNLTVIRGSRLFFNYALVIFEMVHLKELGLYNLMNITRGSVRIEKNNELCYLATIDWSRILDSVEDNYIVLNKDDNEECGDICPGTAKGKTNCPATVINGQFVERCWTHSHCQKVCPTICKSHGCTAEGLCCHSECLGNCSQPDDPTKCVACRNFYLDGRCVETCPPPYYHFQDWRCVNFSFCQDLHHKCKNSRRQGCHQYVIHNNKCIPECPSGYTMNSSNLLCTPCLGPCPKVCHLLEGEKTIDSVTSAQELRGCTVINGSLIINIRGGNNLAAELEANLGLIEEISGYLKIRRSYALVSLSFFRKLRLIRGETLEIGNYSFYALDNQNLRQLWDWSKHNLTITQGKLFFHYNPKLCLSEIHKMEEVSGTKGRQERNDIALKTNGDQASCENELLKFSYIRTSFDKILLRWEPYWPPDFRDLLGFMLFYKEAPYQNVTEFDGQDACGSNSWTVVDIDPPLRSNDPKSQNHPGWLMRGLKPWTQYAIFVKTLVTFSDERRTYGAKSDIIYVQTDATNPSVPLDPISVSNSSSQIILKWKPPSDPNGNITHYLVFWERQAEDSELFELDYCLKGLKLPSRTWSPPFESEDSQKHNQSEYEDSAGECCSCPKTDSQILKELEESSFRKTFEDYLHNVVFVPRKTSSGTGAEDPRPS
Chain of Insulin receptor (P06213 763-1382 limits assumed): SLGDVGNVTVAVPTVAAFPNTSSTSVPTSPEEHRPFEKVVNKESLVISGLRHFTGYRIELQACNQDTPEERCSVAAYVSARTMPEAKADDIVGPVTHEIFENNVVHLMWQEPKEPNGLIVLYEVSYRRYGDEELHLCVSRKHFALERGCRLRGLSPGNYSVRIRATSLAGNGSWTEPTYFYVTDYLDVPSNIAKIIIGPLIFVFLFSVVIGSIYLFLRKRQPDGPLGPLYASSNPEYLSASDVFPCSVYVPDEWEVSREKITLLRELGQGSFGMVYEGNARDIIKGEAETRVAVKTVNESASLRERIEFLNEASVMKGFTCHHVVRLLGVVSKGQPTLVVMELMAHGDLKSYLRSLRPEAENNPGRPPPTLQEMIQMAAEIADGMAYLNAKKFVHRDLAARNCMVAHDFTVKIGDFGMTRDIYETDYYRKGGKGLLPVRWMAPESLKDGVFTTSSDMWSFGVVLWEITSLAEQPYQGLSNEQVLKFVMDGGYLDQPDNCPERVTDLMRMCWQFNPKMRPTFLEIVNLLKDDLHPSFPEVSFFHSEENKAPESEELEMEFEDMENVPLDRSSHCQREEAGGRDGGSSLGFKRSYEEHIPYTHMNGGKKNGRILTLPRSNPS

[6] = AUC (0 to t) in Sprague-Dawley rat at 5 mg/kg, po; assay type: ADME, organism-based; parameters: dose 5 mg/kg, route oral; conditions: plasma
[7] = Oral bioavailability in Sprague-Dawley rat at 5 mg/kg; assay type: ADME, organism-based; conditions: in vivo
[8] = Half life in Sprague-Dawley rat at 1 mg/kg, iv; assay type: ADME, organism-based; parameters: dose 1 mg/kg, route intravenous; conditions: in vivo
[9] = Plasma concentration in human SUP-M2 cells xenografted SCID mouse at 30 mg/kg, po administered as single dose measured 12 hrs post dose; assay type: ADME, organism-based; parameters: dose 30 mg/kg, route oral
[10] = biological target: ALK tyrosine kinase receptor (Homo sapiens, UniProt Q9UM73); experiment: Inhibition of GST-tagged human ALK cytoplasmic domain (1058-1620) expressed in Sf21 insect cells using GST-tagged human recombinant PLC-gamma/substrate by ELISA
Chain of ALK tyrosine kinase receptor (Q9UM73 whole entry, the tested form may be a part): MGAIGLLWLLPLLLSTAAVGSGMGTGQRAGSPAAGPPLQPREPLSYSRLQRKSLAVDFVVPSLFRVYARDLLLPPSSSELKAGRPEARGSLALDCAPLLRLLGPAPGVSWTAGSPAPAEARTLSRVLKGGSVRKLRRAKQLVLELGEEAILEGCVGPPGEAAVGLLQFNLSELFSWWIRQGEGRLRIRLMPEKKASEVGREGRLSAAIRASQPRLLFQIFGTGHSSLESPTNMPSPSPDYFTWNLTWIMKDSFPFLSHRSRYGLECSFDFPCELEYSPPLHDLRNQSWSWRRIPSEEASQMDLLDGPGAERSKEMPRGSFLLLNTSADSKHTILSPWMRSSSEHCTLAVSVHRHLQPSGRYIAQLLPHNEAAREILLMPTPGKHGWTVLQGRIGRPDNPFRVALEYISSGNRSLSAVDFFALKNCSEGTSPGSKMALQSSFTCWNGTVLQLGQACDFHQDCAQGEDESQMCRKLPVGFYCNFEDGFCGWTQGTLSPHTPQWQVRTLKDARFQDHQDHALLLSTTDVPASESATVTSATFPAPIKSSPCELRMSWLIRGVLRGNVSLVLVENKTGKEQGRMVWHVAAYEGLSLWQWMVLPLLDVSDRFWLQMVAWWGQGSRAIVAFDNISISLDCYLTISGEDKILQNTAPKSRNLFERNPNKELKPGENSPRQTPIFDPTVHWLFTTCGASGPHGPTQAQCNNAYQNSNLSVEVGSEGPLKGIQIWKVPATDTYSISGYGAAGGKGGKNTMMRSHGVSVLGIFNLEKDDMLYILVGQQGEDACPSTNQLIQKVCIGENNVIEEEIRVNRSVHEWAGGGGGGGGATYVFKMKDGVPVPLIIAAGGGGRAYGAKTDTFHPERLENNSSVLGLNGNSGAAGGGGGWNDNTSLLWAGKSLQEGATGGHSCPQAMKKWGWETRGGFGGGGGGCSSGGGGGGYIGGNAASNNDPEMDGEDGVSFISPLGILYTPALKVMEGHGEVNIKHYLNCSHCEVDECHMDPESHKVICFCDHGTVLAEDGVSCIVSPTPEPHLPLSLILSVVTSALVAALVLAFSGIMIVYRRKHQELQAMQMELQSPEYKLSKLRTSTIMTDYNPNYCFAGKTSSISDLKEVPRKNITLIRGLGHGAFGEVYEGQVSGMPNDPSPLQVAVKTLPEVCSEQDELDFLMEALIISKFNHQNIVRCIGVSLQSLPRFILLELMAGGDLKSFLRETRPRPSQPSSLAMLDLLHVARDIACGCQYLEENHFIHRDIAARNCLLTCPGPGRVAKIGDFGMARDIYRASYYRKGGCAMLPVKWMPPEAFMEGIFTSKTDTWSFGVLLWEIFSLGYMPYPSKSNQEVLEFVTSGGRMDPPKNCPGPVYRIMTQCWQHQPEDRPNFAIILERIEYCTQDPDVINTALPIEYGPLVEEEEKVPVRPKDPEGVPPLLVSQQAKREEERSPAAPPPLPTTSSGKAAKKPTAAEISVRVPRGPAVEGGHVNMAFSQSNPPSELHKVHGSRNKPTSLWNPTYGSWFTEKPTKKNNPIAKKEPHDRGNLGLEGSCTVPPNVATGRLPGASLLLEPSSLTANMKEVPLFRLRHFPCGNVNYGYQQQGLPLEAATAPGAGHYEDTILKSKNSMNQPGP

[11] = biological target: NPM/ALK (Nucleophosmin/ALK tyrosine kinase receptor) (Homo sapiens, UniProt Q9UM73); experiment: Inhibition of human NPM-ALK phosphorylation using 4-MeUP substrate by cell based assay
Chain of NPM/ALK (Nucleophosmin/ALK tyrosine kinase receptor) (Q9UM73 whole entry): as the sequence (Q9UM73 whole entry, the tested form may be a part) above
Chain of NPM/ALK (Nucleophosmin/ALK tyrosine kinase receptor) (P06748 whole entry, further chain): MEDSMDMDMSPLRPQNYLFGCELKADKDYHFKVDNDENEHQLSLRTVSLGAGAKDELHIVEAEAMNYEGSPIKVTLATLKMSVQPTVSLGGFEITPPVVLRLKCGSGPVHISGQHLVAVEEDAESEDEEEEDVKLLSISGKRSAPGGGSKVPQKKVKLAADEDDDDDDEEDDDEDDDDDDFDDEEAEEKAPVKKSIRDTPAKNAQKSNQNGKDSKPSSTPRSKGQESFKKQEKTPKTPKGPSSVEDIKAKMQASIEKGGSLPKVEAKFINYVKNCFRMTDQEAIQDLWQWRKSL

[12] = Half life in human liver microsomes at 0.5 uM preincubated for 10 mins before NADPH and UDPGA challenge; assay type: ADME, Microsome
[13] = AUC (0 to t) in Sprague-Dawley rat at 1 mg/kg, iv; assay type: ADME, organism-based; parameters: dose 1 mg/kg, route intravenous; conditions: plasma
[14] = Clearance in SCID mouse at 1 mg/kg, iv; assay type: ADME, organism-based; parameters: dose 1 mg/kg, route intravenous; conditions: in vivo
[15] = Half life in SCID mouse at 1 mg/kg, iv; assay type: ADME, organism-based; parameters: dose 1 mg/kg, route intravenous; conditions: in vivo
[16] = Half life in CD1 mouse liver microsomes at 0.5 uM preincubated for 10 mins before NADPH and UDPGA challenge; assay type: ADME, Microsome
Plasma = experiment: Ratio of plasma concentration at 12 hrs to plasma concentration at 24 hrs in human SUP-M2 cells xenografted SCID mouse at 30 mg/kg, po administered as single dose; assay type: ADME, organism-based; parameters: dose 30 mg/kg, route oral; conditions: in vivo
[17] = Half life in Sprague-Dawley rat liver microsomes at 0.5 uM preincubated for 10 mins before NADPH and UDPGA challenge; assay type: ADME, Microsome
Mus musculus [18] = experiment: Inhibition of NPM-ALK phosphorylation in human SUP-M2 cells xenografted in SCID mouse at 30 mg/kg, po administered as single dose measured 12 hrs post dose; assay type: functional; conditions: SUP-M2, 12 h
Mus musculus [19] = experiment: Toxicity in human SUP-M2 cells xenografted SCID mouse assessed as body weight loss at 55 mg/kg, po BID measured 12 days post dose; assay type: organism-based; parameters: dose 55 mg/kg, route oral; conditions: in vivo, 288 h
[20] = Oral bioavailability in SCID mouse at 10 mg/kg; assay type: ADME, organism-based; conditions: in vivo
[21] = Tmax in Sprague-Dawley rat at 5 mg/kg, po; assay type: ADME, organism-based; parameters: dose 5 mg/kg, route oral; conditions: in vivo
Mus musculus [22] = experiment: Toxicity in human SUP-M2 cells xenografted SCID mouse assessed as body weight loss at 30 mg/kg, po BID measured 12 days post dose; assay type: organism-based; parameters: dose 30 mg/kg, route oral; conditions: in vivo, 288 h
[23] = AUC (0 to t) in SCID mouse at 10 mg/kg, po; assay type: ADME, organism-based; parameters: dose 10 mg/kg, route oral; conditions: plasma
[24] = Half life in monkey liver microsomes at 0.5 uM preincubated for 10 mins before NADPH and UDPGA challenge; assay type: ADME, Macaca mulatta, Microsome; conditions: rhesus monkey
[25] = AUC (0 to t) in SCID mouse at 1 mg/kg, iv; assay type: ADME, organism-based; parameters: dose 1 mg/kg, route intravenous; conditions: plasma
[26] = Cmax in Sprague-Dawley rat at 5 mg/kg, po; assay type: ADME, organism-based; parameters: dose 5 mg/kg, route oral; conditions: in vivo
[27] = Half life in SCID mouse at 10 mg/kg, po; assay type: ADME, organism-based; parameters: dose 10 mg/kg, route oral; conditions: in vivo
[28] = Cmax in SCID mouse at 10 mg/kg, po; assay type: ADME, organism-based; parameters: dose 10 mg/kg, route oral; conditions: in vivo
[29] = Ratio of tumor concentration at 12 hrs to plasma concentration at 12 hrs in human SUP-M2 cells xenografted SCID mouse at 30 mg/kg, po administered as single dose; assay type: ADME, organism-based; parameters: dose 30 mg/kg, route oral
[30] = Clearance in Sprague-Dawley rat at 1 mg/kg, iv; assay type: ADME, organism-based; parameters: dose 1 mg/kg, route intravenous; conditions: in vivo

Structure (SMILES): COc1cc(C2CCN(CC(N)=O)CC2)ccc1Nc1ncc2ccc(-c3ccccc3OC)n2n1
Vd [1]: 3.5 L/kg | Activity (Mus musculus [2]): Non-toxic | Activity (Mus musculus [3]): Non-toxic | Tmax [4]: 120 min | Vd [5]: 1.1 L/kg | pIC50 (Insulin receptor): 6.65 | AUC(0-t) [6]: 1760 ng·h/mL | bioavailability [7]: 43% | half-life [8]: 204 min | concentration at 12 h [9]: 6 µM | pIC50 [10]: 8.22 | pIC50 [11]: 7.00 | half-life at 0.5 µM [12]: > 40 min | AUC(0-t) [13]: 1110 ng·h/mL | clearance [14]: 2 mL/min/kg | half-life [15]: 360 min | half-life at 0.5 µM [16]: > 40 min | Ratio (Plasma): 7 | half-life at 0.5 µM [17]: > 40 min | inhibition in vivo at 30 mg/kg (Mus musculus [18]): 80% | Activity (Mus musculus [19]): Non-toxic | bioavailability [20]: 56% | Tmax [21]: 360 min | Activity (Mus musculus [22]): Non-toxic | AUC(0-t) [23]: 42500 ng·h/mL | half-life at 0.5 µM [24]: > 40 min | AUC(0-t) [25]: 7550 ng·h/mL | Cmax [26]: 392 ng/mL | half-life [27]: 264 min | Cmax [28]: 3470 ng/mL | Kp at 12 h [29]: 2 | clearance [30]: 12 mL/min/kg

Structure (SMILES): CNC(=O)CN1CCC(c2ccc(Nc3ncc4ccc(-c5ccccc5OC)n4n3)c(OC)c2)CC1
pIC50 (Insulin receptor): 6.79 | pIC50 [10]: 8.00 | pIC50 [11]: 7.00 | half-life at 0.5 µM [12]: < 12 min | half-life at 0.5 µM [24]: < 12 min

Structure (SMILES): COc1ccc(-c2ccc3cnc(Nc4ccc(C5CCN(CC(N)=O)CC5)cc4OC)nn23)c(OC)c1
pIC50 (Insulin receptor): 5.53 | pIC50 [10]: 7.92 | pIC50 [11]: 6.30

Structure (SMILES): COc1cc(C2CCN(CC(N)=O)CC2)ccc1Nc1ncc2ccc(-c3ccccc3C#N)n2n1
pIC50 (Insulin receptor): 6.13 | pIC50 [10]: 7.72 | pIC50 [11]: 6.60

Structure (SMILES): COc1cc(C2CCN(CC(N)=O)CC2)ccc1Nc1ncc2ccc(-c3ncccc3OC)n2n1
pIC50 (Insulin receptor): < 5.00 | pIC50 [10]: 5.97

Structure (SMILES): COc1cc(C2CCN(CC(N)=O)CC2)ccc1Nc1ncc2ccc(-c3ccncc3OC)n2n1
pIC50 (Insulin receptor): 6.39 | pIC50 [10]: 8.05 | pIC50 [11]: 6.82

Structure (SMILES): COc1cc(C2CCN(CC(N)=O)CC2)ccc1Nc1ncc2c(O)cc(-c3ccccc3N(C)S(C)(=O)=O)n2n1
pIC50 [10]: 7.96 | half-life at 0.5 µM [12]: < 5 min | half-life at 0.5 µM [16]: < 5 min | half-life at 0.5 µM [17]: < 5 min | half-life at 0.5 µM [24]: < 5 min

Continued, in another order:

pIC50 (Insulin receptor): 6.26 | pIC50 [10]: 7.82 | pIC50 [11]: 7.10 | half-life at 0.5 µM [12]: < 5 min | half-life at 0.5 µM [16]: 29 min | half-life at 0.5 µM [17]: < 5 min | half-life at 0.5 µM [24]: < 5 min
Structure (SMILES): COc1cc(C2CCN(CC(N)=O)CC2)ccc1Nc1ncc2ccc(-c3ccccc3N(C)S(C)(=O)=O)n2n1

bioavailability [7]: 24% | half-life [8]: > 120 min | pIC50 [10]: 8.22 | pIC50 [11]: 7.15 | half-life at 0.5 µM [12]: 18 min | half-life at 0.5 µM [16]: > 40 min | half-life at 0.5 µM [17]: 31 min | half-life at 0.5 µM [24]: 6 min | clearance [30]: ≤ 4 mL/min/kg
Structure (SMILES): COc1cc(C2CCN(CC(N)=O)CC2)ccc1Nc1ncc2c(C)cc(-c3ccccc3N(C)S(C)(=O)=O)n2n1
inhibition in vivo at 30 mg/kg (Mus musculus [18]): < 75%

bioavailability [7]: 41% | half-life [8]: > 120 min | pIC50 [10]: 8.33 | pIC50 [11]: 7.15 | half-life at 0.5 µM [12]: 37 min | half-life at 0.5 µM [16]: > 40 min | half-life at 0.5 µM [17]: > 40 min | half-life at 0.5 µM [24]: 15 min | clearance [30]: ≤ 4 mL/min/kg
Structure (SMILES): COc1cc(C2CCN(CC(N)=O)CC2)ccc1Nc1ncc2c(Cl)cc(-c3ccccc3N(C)S(C)(=O)=O)n2n1
inhibition in vivo at 30 mg/kg (Mus musculus [18]): < 75%

pIC50 [10]: 7.25
Structure (SMILES): COc1c(Nc2ncc3ccc(-c4ccccc4N(C)S(C)(=O)=O)n3n2)ccc(N2CCN(C[C@H](C)O)CC2)c1F

pIC50 [10]: 7.85 | pIC50 [11]: 6.70
Structure (SMILES): COc1cc(N2CCN(C[C@H](C)O)CC2)c(F)cc1Nc1ncc2ccc(-c3ccccc3N(C)S(C)(=O)=O)n2n1
